Reference: ChEMBL document CHEMBL1156526, “Specificity and mechanism of action of EHT 1864, a novel small molecule inhibitor of Rac family small GTPases” (2007)
Active and inactive are the calls of the source. No cut-off for these calls is given here.

Assays:
U-87 MG [1] = assay: Reduction of RhoA-GTPase level in platelet derived growth factor-induced human U87MG cells measured with GST-rhotekin-RBD by pulldown assay; format: functional, cell-based; details: U-87MG ATCC
[2] = biological target: Cell division control protein 42 homolog (Homo sapiens) (UniProt P60953); assay: Inhibition of Cdc42-PAK-RBD complex formation in platelet derived growth factor-induced human U87MG cells at 50 uM by fluorescence anisotropy; format: cell-based; details: U-87MG ATCC
293T = assay: Effect on interaction between Rac1 15A mutant and human Tiam1 C1199 mutant expressed in 293T cells by Western blot analysis; format: cell-based
NIH3T3 [3] = assay: Effect on interaction between Rac1 15A mutant and human Tiam1 C1199 mutant expressed in NIH3T3 cells by Western blot analysis; format: cell-based
[4] = biological target: Ras-related C3 botulinum toxin substrate 1 (Mus musculus) (UniProt P63001); assay: Effect on Rac1 binding to RhoGDI1 in mouse NIH3T3 cells by Western blot analysis; format: cell-based
[5] = biological target: Ras-related C3 botulinum toxin substrate 1 (Mus musculus) (UniProt P63001); assay: Effect on Rac1 binding to RhoGDI2 in mouse NIH3T3 cells by Western blot analysis; format: cell-based
[6] = biological target: Ras-related C3 botulinum toxin substrate 2 (Homo sapiens) (UniProt P15153); assay: Binding affinity at Rac2 at 1 uM by fluorescence anisotropy
[7] = biological target: Ras-related C3 botulinum toxin substrate 3 (Homo sapiens) (UniProt P60763); assay: Binding affinity at Rac3 at 1 uM by fluorescence anisotropy
[8] = biological target: Cell division control protein 42 homolog (Homo sapiens) (UniProt P60953); assay: Binding affinity at Cdc42 at 1 uM by fluorescence anisotropy
NIH3T3 [9] = assay: Inhibition of Rac1 61L mutant-induced cellular transformation in mouse NIH3T3 cells at 5 uM after 3 to 5 weeks; format: cell-based
NIH3T3 [10] = assay: Inhibition on Rac1 61L-induced focus forming activity in mouse NIH3T3 cells at 5 uM; format: cell-based
[11] = biological target: Cell division control protein 42 homolog (Homo sapiens) (UniProt P60953); assay: Inhibition of platelet derived growth factor-induced endogenous association of Cdc42 with GST-PAK-RBD in human U87MG cells after 5 mins by Western blot analysis; format: cell-based; details: U-87MG ATCC
NIH3T3 [12] = assay: Inhibition of platelet derived growth factor-induced lamellipodia formation in mouse NIH3T3 cells at 5 uM; format: functional
NIH3T3 [13] = assay: Inhibition of lysophosphatidic acid-induced actin stress fibers formation in mouse NIH3T3 cells at 5 uM; format: functional, cell-based
NIH3T3 [14] = assay: Inhibition of bradykinin-induced filopodia formation in mouse NIH3T3 cells at 5 uM; format: functional, cell-based
NIH3T3 [15] = assay: Inhibition on Tiam1 C1199 mutant-induced focus forming activity in mouse NIH3T3 cells at 5 uM; format: cell-based
NIH3T3 [16] = assay: Inhibition of H-Ras 61L mutant-induced focus formation in mouse NIH3T3 cells at 5 uM after 14 days; format: cell-based
NIH3T3 [17] = assay: Inhibition of Ras-induced cell growth in H-Ras 61L expressing mouse NIH3T3 cells at 5 uM by MTT assay; format: cell-based
NIH3T3 [18] = assay: Inhibition on Rac1 61L […]-induced focus forming activity in mouse NIH3T3 cells at 5 uM; format: cell-based
U-87 MG [19] = assay: Reduction of Rac1-GTPase level in platelet derived growth factor-induced human U87MG cells measured with GST-rhotekin-RBD by pulldown assay; format: functional, cell-based; details: U-87MG ATCC
U-87 MG [20] = assay: Reduction of Cdc42-GTPase level in platelet derived growth factor-induced human U87MG cells measured with GST-rhotekin-RBD by pulldown assay; format: functional, cell-based; details: U-87MG ATCC
U-87 MG [21] = assay: Reduction of RhoA-GTPase level in platelet derived growth factor-induced human U87MG cells measured with GST-PAK-RBD by pulldown assay; format: functional, cell-based; details: U-87MG ATCC
U-87 MG [22] = assay: Reduction of Rac1-GTPase level in platelet derived growth factor-induced human U87MG cells measured with GST-PAK-RBD by pulldown assay; format: functional, cell-based; details: U-87MG ATCC
U-87 MG [23] = assay: Reduction of Cdc42-GTPase level in platelet derived growth factor-induced human U87MG cells measured with GST-PAK-RBD by pulldown assay; format: functional, cell-based; details: U-87MG ATCC

Cell division control protein 42 homolog (Homo sapiens), sequence (P60953 whole entry, looked up): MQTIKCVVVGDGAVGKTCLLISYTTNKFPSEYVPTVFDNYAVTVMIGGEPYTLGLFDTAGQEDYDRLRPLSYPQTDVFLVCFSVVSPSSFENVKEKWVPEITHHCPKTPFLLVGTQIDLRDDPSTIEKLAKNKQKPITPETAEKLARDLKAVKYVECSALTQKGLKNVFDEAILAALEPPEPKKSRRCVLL

## O=c1cc(CN2CCOCC2)occ1OCCCCCSc1ccnc2cc(C(F)(F)F)ccc12
U-87 MG [1]
  Activity: Active
[2]
  Activity: inactive
293T
  Activity: inactive
NIH3T3 [3]
  Activity: inactive
[4]
  Activity: Active
[5]
  Activity: Active
[6]
  Activity: Active
[7]
  Activity: Active
[8]
  Activity: inactive
NIH3T3 [9]
  Activity: Active
NIH3T3 [10]
  inhibition: 80%
[11]
  Activity: inactive
NIH3T3 [12]
  inhibition at 5 µM: 80%
NIH3T3 [13]
  Activity: Active
NIH3T3 [14]
  Activity: Active
NIH3T3 [15]
  Activity: Active
NIH3T3 [16]
  Activity: inactive
NIH3T3 [17]
  Activity: Active
NIH3T3 [18]
  Activity: inactive

## O=c1cc(CN2CCNCC2)occ1OCCCCCSc1ccnc2cc(C(F)(F)F)ccc12
U-87 MG [19]
  Activity: inactive
U-87 MG [1]
  Activity: inactive
U-87 MG [20]
  Activity: inactive
U-87 MG [21]
  Activity: inactive
U-87 MG [22]
  Activity: inactive
U-87 MG [23]
  Activity: inactive

## CCN(CC)CCCC(C)Nc1nc(C)cc(Nc2ccc3nc(C)cc(N)c3c2)n1 (stereo unspecified)
NIH3T3 [9]
  Activity: inactive
